Reference: US10682386B2, “Compositions for prevention of adhesions and other barrier applications” (Arch Biosurgery, Inc., priority 2006, dated 2020)

Legend:
[1] = test system: branch of the superior sagittal sinus in the brains; assay: Transection of a branch of the superior sagittal sinus in the brain, hemostasis; type: in vivo, rats
Protocol: (§1) Animals were anesthetized with an i.p. injection of ketamine (80 mg/kg) and xylazine (8 mg/kg). All surgical procedures were conducted under an operating microscope. Twenty-two animals, including 10 adult hamsters and 12 young adult female Spraque-Dawley rats (200-250 g), were treated with either iced saline or 20 μl of a 1% peptide solution at the site of the sinus branch transection. The material was prepared by dissolving RADA 16-1 (n-RADARADARADARADA-c; SEQ ID NO: 1) peptide in sterile water, and the peptide-containing solution was applied to the injured tissue with a 31 gauge needle attached to a 2 cc syringe.
(§2) The experiment was videotaped with a time stamp and was replayed one frame at a time to evaluate the length of time required for the peptide solution to form a gel, which effectively impeded bleeding. Hemostasis was assessed visually, and “complete hemostasis” was defined as the complete lack of movement of blood from the wound site.
Durations were measured from the start of application of peptide solution to the completion of hemostasis after transection of the veins leading to the sinus in the brains of adult rats. […] In the saline controls, cessation of bleeding was never achieved. The saline control experiment was terminated at the same time point in order to prevent the animals from bleeding to death.

[2] = test system: branch of the superior sagittal sinus in the brains; assay: as above; type: in vivo; settings: hamsters; 20 μl of a 1% peptide solution at the site of the sinus branch transection; all cases
Protocol: as §1, §2

[3] = test system: superior sagittal sinus; assay: Complete transection of the superior sagittal sinus, hemostasis; type: in vivo; settings: control animals that continued to bleed after 20 seconds
Excerpt: A higher concentration of peptide (e.g., approximately 3%-4%) was used in the latter experiment in order to achieve hemostasis. The three saline control cases continued to bleed after 20 seconds.

[4] = test system: femoral artery; assay: Femoral artery transection, hemostasis; type: in vivo, adult rats
Protocol: The sciatic nerve and the adjacent femoral artery were exposed in adult rats, and the femoral artery was transected. Twelve rats were treated by application of 20 μl of a 1% solution of RADA 16-I (SEQ ID NO: 1) peptide to the site of transection using a glass pipette attached to a syringe body, while controls were treated by applying cold saline to the site of transection. […] The saline control cases continued to bleed until the experiment was terminated at 110 seconds.
A series of pictures was taken in an adult rat in which the femoral artery was transected. In the picture taken first, the sciatic nerve and the femoral artery are exposed. […] The assembled material can be suctioned off the site easily if desired.

[5] = test system: spinotrapezius muscles; assay: Muscle trauma, cut in spinotrapezius muscle on the back, hemostasis; type: in vivo, rat; settings: 1% peptide solution applied in deep cut, 1-2 cm incisions
Excerpt: (§3) The spinotrapezius muscles on the back of the rats were exposed and a deep cut was made in the muscle, after which 1% peptide solution (RADA16-I) (SEQ ID NO: 1) was applied in the cut. Within 10 seconds, all bleeding had stopped. With the application of iced saline alone, control animals continued to bleed after 20 seconds.

[6] = test system: muscle of the hind limb (porteocaudalis and musculus tibialis cranialis); assay: Muscle trauma, hind limb muscle and limb wounds, hemostasis; type: in vivo, rat
Excerpt: as §3, with “seconds. […] However when an artery or vein was transected 2% or higher material was needed to bring about hemostasis.[…]” for “seconds.”

[7] = test system: liver, lobus sinister lateralis; assay: Liver cut, rostral to caudal, vessel of relatively low pressure, hemostasis; type: in vivo, adult rat; settings: 1% peptide solution applied topically and in the cut
Excerpt: Profuse bleeding ensued. A 1% peptide solution (RADA16-1) (SEQ ID NO: 1) was applied to the cut and in its vicinity using a 27 gauge needle and 4 cc syringe. All bleeding stopped within 10 seconds. A series of pictures was obtained. […] After treating the site with 1% peptide solution (applied topically and in the cut), all bleeding stopped within 10 seconds. A clear area was observed between the two halves of the lobus sinister lateralis. This procedure was repeated several times with the same result.

[8] = test system: liver, lobus sinister lateralis and a major branch of the portal vein; assay: Liver transverse cut with major branch of the portal vein, higher pressure, hemostasis; type: in vivo, rat
Protocol: A series of pictures illustrate the experiment. […] The cut was treated with 4% peptide solution applied topically and in the cut. All bleeding stopped within 10 seconds. […] Thus, application of 4% peptide solution brings about complete hemostasis in a high pressure bleeding environment in less than 10 seconds. […] This procedure was repeated several times with the same result.

[9] = test system: lobus sinistras laterialis of the liver; assay: Removal of ¼ of the liver lobe, topical treatment of the margin, hemostasis; type: in vivo
Protocol: In other experiments ¼ of the lobe in the lower right quadrant of the lobus sinistras laterialis was removed, and the margin was treated with a topical application of 2% peptide (RADA16-I) (SEQ ID NO: 1) to the site of injury. Bleeding stopped in less than 10 seconds.

[10] = test system: liver; assay: 4 mm liver punch biopsy, adhesions; type: in vivo, adult rats; settings: punch filled with 3%; survival 2 d, 7 d, 14 d, 6 w, 8 w
Protocol: The liver of 18 adult rats was exposed under deep anesthesia, the upper right lobe was punched by a 4 mm punch, then the wound was treated with 3% NHS-1. Animals were allowed to survive 2 d, 7 d, 14 d, 6 w, and 8 w respectively, then the animals were anesthetized again and the punched lobe of liver was dissected and processed for H&E staining. In addition a set of controls were treated with either saline or cautery. 4 mm liver punch biopsy experiment with control and filling of punch with 3% RADA. All of the controls had adhesions on both surfaces while the treated had no adhesions. In the 2 week, 6 week and 8 week controls adhesions were cut away on the upper and lower surfaces. On all the 3% RADA treated cases there were no adhesions on with the upper or lower surface of the liver.

[11] = test system: intestine at the level of the duodenum; assay: Perforation of the intestine at the level of the duodenum, leakage of gastric fluid; type: in vivo, adult rat
Protocol: An additional volume of 2% peptide solution was injected into the duodenum at the level of the injury. […] In the control cut at the level of the duodenum, the wall of the intestine inverted and gastric fluids continued to leak from the site of injury when left untreated.

[12] = test system: skin and subcutaneous tissue; assay: 4 mm punch biopsy of skin and subcutaneous tissue, healing test; type: in vivo
Protocol: The regions from which the biopsies were taken were either treated by a single application of self-assembling peptide (RADA16-I) (SEQ ID NO: 1) solution or were left untreated. The wounds were left unbandaged. A series of pictures of a 4 mm punch biopsy healing test in which injured animals were treated with the self assembling peptide and compared to matching cases with no treatment illustrates the results. The wounds were photographed on day 0, day 1, day 4, and day 7. […] Treatment with the peptide appeared to speed healing by as much as 5 days in some cases.

n-RADARADARADARADA-c [RADA16-I]
hemostasis five seconds after the peptide solution was applied ([1]; adult rat, one of the veins of the superior sagittal sinus transected, series of pictures): Complete hemostasis was achieved | average duration from start of application of peptide solution to completion of hemostasis ([1]; adult rats, transection of the veins leading to the sinus): 8.3 s | time to complete hemostasis after application of the peptide solution ([1]; rats, 20 μl of a 1% peptide solution at the site of the sinus branch transection, all cases): ≤ 10 s | time to complete hemostasis after application of the peptide solution [2]: ≤ 10 s | hemostasis after iced saline was removed and the peptide solution was applied [3]: complete hemostasis almost immediately | time to hemostasis ([4]; 20 μl of a 1% solution at the site of transection, twelve rats, all treated cases): less than 10 seconds | time at which complete hemostasis was observed ([4]; adult rat, series of pictures): about five | hemostasis after replacement of the cold saline with the peptide solution ([4]; control animals that bled until 110 seconds): almost immediate achievement of complete hemostasis | time complete hemostasis was maintained ([4]; duration of the test): 1 h | time until all bleeding had stopped [5]: ≤ 10 s | hemostasis in limb wounds ([6]; between 1% to 100% peptide applied): hemostasis was achieved in all cases | concentration of material needed to bring about hemostasis ([6]; when an artery or vein was transected): ≥ 2% | time until all bleeding stopped [7]: ≤ 10 s | hemostasis ([8]; 1% solution): partial cessation of bleeding | hemostasis ([8]; 2% peptide solution): complete hemostasis was also achieved | hemostasis ([8]; 3% peptide solution): complete hemostasis was also achieved | bleeding ten minutes later ([8]; 4% peptide solution): still no bleeding | bleeding under physical stress (lower part of lobe pulled downward) ([8]; 4% peptide solution): did not bleed | hemostasis after excess peptide structure was wiped away ([8]; 30 seconds after treatment): hemostasis was maintained | hemostasis at the margin of the liver after the peptide was removed ([9]; 2% peptide, removed one minute later): complete hemostasis was achieved | time until bleeding stopped ([9]; topical application of 2% peptide to the margin): less than 10 seconds | adhesions on the upper or lower surface of the liver [10]: no adhesions | progression of the intestinal wall inversion ([11]; control cut treated 15 minutes after the injury): stopped the progression | leakage from the injury site ([11]; control cut treated with peptide solution 15 minutes after the injury): stopped all leakage | leakage of gastric fluids from the intestine ([11]; site treated with 2% peptide solution): all leakage of gastric fluids from the intestine stopped | shrinkage of the wound site versus untreated ([12]; all cases): happened faster | healing of treated wounds versus no treatment ([12]; single application, contraction of the wound site as early as day 1): healed much faster | speeding of healing ([12]; single application, in some cases): ≤ 5 days
